{"source": "paper PMC9144829", "about": "“Histone Deacetylase Inhibitory Activity and Antiproliferative Potential of New [6]-Shogaol Derivatives” (Molecules, 2022)", "key": {"[1]": {"test_system": "HDAC enzymes (HeLa nuclear extract, mixed-HDAC isoforms)", "test": "Fluor-de-Lys HDAC activity assay kit, HeLa nuclear extract as source of HDAC enzymes", "assay_type": "biochemical, human", "conditions": "compounds at 100 µM", "protocol": "The in vitro HDAC inhibitions of the obtained compounds were carried out with the assay kit containing mixed-HDAC isoforms. […] Therefore, the results were not fully related. However, compounds with good binding affinities should have the potential to be specific HDAC inhibitors for each isoform.\nThe semi-synthetic derivatives were evaluated for their ability to inhibit HDAC enzymes. Inhibition of HDAC activity in vitro was assessed using the Fluor-de-Lys HDAC activity assay kit (Biomol, Enzo Life Sciences International, Inc., Farmingdale, NY, USA). The HeLa nuclear extract provided with the kit was used as a source of HDAC enzymes for the in vitro study. TSA was used as the positive control. The HeLa nuclear extract, substrate, buffer and inhibitors were incubated. Deacetylation of the substrate was performed next by adding a developer to generate a fluorophore. The spectra Max Gemini XPS microplate spectrofluorometer (Molecular Devices, San Jose, CA, USA) was used to measure fluorescence signal with excitation at 360 nm and emission at 460 nm. A decrease in fluorescence signal indicated an inhibition of HDAC activity. Trichostatin A (TSA) was used as a positive control. All experiments were carried out in triplicate."}, "[2]": {"test_system": "human colon cancer (HCT116) cells", "test": "MTT assay, HCT116 cells", "assay_type": "cell-based", "conditions": "read-out: IC50 Values (Mean ± SD; n = 3)", "protocol": "(§1) The MTT reduction assay was performed with non-cancer (Vero), human cervical cancer (HeLa), human colon cancer (HCT116), human breast adenocarcinoma cancer (MCF-7), and cholangiocarcinoma (H-69 […], KKU-100 and KKU-M213B) cell lines according to the previously described method. Briefly, cells were seeded in 96-well plates. The next day, cells were exposed to the selected compounds at various concentrations and incubated for 24, 48 and 72 h. After incubation, the culture medium was exchanged with 110 µL of MTT (0.5 mg/mL in PBS medium) and further incubated for 2 h. The amount of MTT formazan product was determined after dissolving in DMSO by measuring its absorbance with a microplate reader (Bio-Rad Laboratories, Hercules, CA, USA) at a test wavelength of 550 nm and a reference wavelength of 655 nm. The cell viability was expressed as a percentage of the viable cells of control culture conditions, and the IC50 values of each group were calculated."}, "[3]": {"test_system": "H-69 cells", "test": "MTT assay, H-69 cells", "assay_type": "cell-based", "conditions": "read-out: IC50 Values (Mean ± SD; n = 3)", "protocol": "as §1"}, "[4]": {"test_system": "cholangiocarcinoma KKU-100 cells", "test": "MTT assay, KKU-100 cells", "assay_type": "cell-based, human", "conditions": "read-out: IC50 Values (Mean ± SD; n = 3)", "protocol": "as §1"}, "[5]": {"test_system": "human cervical cancer (HeLa) cells", "test": "MTT assay, HeLa cells", "assay_type": "cell-based", "conditions": "read-out: IC50 Values (Mean ± SD; n = 3), HeLa cells", "protocol": "as §1"}, "[6]": {"test_system": "cholangiocarcinoma KKU-M213B cells", "test": "MTT assay, KKU-M213B cells", "assay_type": "cell-based, human", "conditions": "read-out: IC50 Values (Mean ± SD; n = 3)", "protocol": "as §1"}, "[7]": {"test_system": "human breast adenocarcinoma cancer (MCF-7) cells", "test": "MTT assay, MCF-7 cells", "assay_type": "cell-based", "conditions": "read-out: IC50 Values (Mean ± SD; n = 3)", "protocol": "as §1"}}, "note": "Read-outs that look alike come from different tables or passages of the source."}
{"molecule": "CCCCC/C=C/C(CCc1ccc(O)c(OC)c1)=N\\NC1=NCC=N1", "note": "[Compound 4e, 4-((3Z,4E)-3-(2-(4H-Imidazol-2-yl)hydrazono)dec-4-en-1-yl)-2-methoxyphenol]", "values": [{"measurement": "%HDAC Inhibition", "setting": "[1]", "result": 73, "unit": "%"}]}
{"molecule": "CCCCCC1CC(CCc2ccc(O)c(OC)c2)=NN1c1ccc(F)cc1", "note": "(stereo not drawn) [Compound 5f, 4-(2-(1-(4-fluorophenyl)-5-pentyl-4,5-dihydro-1H-pyrazol-3-yl)ethyl)-2-methoxyphenol]", "values": [{"measurement": "%HDAC Inhibition", "setting": "[1]", "result": 77, "unit": "%"}]}
{"molecule": "CCCCCC1CC(CCc2ccc(O)c(OC)c2)=NN1c1ccccc1OC", "note": "(stereo not drawn) [Compound 5c, 2-methoxy-4-(2-(1-(2-methoxyphenyl)-5-pentyl-4,5-dihydro-1H-pyrazol-3-yl)ethyl) phenol]", "values": [{"measurement": "%HDAC Inhibition", "setting": "[1]", "result": 52, "unit": "%"}]}
{"molecule": "10-(4-Hydroxy-3-methoxyphenyl)-6-(phenylamino)decan-8-one [Compound 6c]", "values": [{"measurement": "%HDAC Inhibition", "setting": "[1]", "result": 53, "unit": "%"}]}
{"molecule": "N.N.[Cl][Pt][Cl]", "note": "[Cisplatin, reference compound]", "values": [{"measurement": "IC50", "setting": "[2]; 24 h", "result": "21 ± 2.56", "unit": "µM"}, {"measurement": "IC50", "setting": "[2]; 48 h", "result": "7.61 ± 0.61", "unit": "µM"}, {"measurement": "IC50", "setting": "[2]; 72 h", "result": "4.98 ± 0.77", "unit": "µM"}, {"measurement": "IC50", "setting": "[3]; 24 h", "result": "> 20", "unit": "µM"}, {"measurement": "IC50", "setting": "[3]; 48 h", "result": "> 20", "unit": "µM"}, {"measurement": "IC50", "setting": "[3]; 72 h", "result": "15.8 ± 0.35", "unit": "µM"}, {"measurement": "IC50", "setting": "[4]; 24 h", "result": "17.32 ± 0.12", "unit": "µM"}, {"measurement": "IC50", "setting": "[4]; 48 h", "result": "11.2 ± 0.14", "unit": "µM"}, {"measurement": "IC50", "setting": "[4]; 72 h", "result": "7.57 ± 0.07", "unit": "µM"}, {"measurement": "IC50", "setting": "[5]; 24 h", "result": "17.1 ± 1", "unit": "µM"}, {"measurement": "IC50", "setting": "[5]; 48 h", "result": "9.97 ± 0.34", "unit": "µM"}, {"measurement": "IC50", "setting": "[5]; 72 h", "result": "6.45 ± 0.12", "unit": "µM"}, {"measurement": "IC50", "setting": "[6]; 24 h", "result": "> 20", "unit": "µM"}, {"measurement": "IC50", "setting": "[6]; 48 h", "result": "18.6 ± 0.57", "unit": "µM"}, {"measurement": "IC50", "setting": "[6]; 72 h", "result": "13 ± 0.61", "unit": "µM"}, {"measurement": "IC50", "setting": "[7]; 24 h", "result": "29.2 ± 1.35", "unit": "µM"}, {"measurement": "IC50", "setting": "[7]; 48 h", "result": "13.8 ± 0.54", "unit": "µM"}, {"measurement": "IC50", "setting": "[7]; 72 h", "result": "10.4 ± 0.25", "unit": "µM"}]}
{"molecule": "CCCCCC1CC(CCc2ccc(O)c(OC)c2)=Nc2ccccc2N1", "note": "(stereo not drawn) [Compound 7, 2-Methoxy-4-(2-(2-pentyl-2,3-dihydro-1H-benzo[b][1,4]diazepin-4-yl)ethyl)phenol]", "values": [{"measurement": "%HDAC Inhibition", "setting": "[1]", "result": 63, "unit": "%"}]}
{"molecule": "CCCCCC1CC(CCc2ccc(O)c(OC)c2)=NN1c1ccc(Cl)cc1", "note": "(stereo not drawn) [Compound 5h, 4-(2-(1-(4-chlorophenyl)-5-pentyl-4,5-dihydro-1H-pyrazol-3-yl)ethyl)-2-methoxyphenol]", "values": [{"measurement": "%HDAC Inhibition", "setting": "[1]", "result": 68, "unit": "%"}]}
{"molecule": "CCCCC/C=C/C(CCc1ccc(O)c(OC)c1)=N\\Nc1ccc(C(=O)O)cc1", "note": "[Compound 4b, 4-(2-((3Z,4E)-1-(4-Hydroxy-3-methoxyphenyl)dec-4-en-3-ylidene)hydrazinyl)benzo-ic acid]", "values": [{"measurement": "%HDAC Inhibition", "setting": "[1]", "result": 73, "unit": "%"}]}
{"molecule": "CCCCCC1CC(CCc2ccc(O)c(OC)c2)=NN1c1cccc(Cl)c1", "note": "(stereo not drawn) [Compound 5g, 4-(2-(1-(3-chlorophenyl)-5-pentyl-4,5-dihydro-1H-pyrazol-3-yl)ethyl)-2-methoxyphenol]", "values": [{"measurement": "%HDAC Inhibition", "setting": "[1]", "result": 60, "unit": "%"}]}
{"molecule": "CCCCCC1CC(CCc2ccc(O)c(OC)c2)=NN1c1ccccc1C", "note": "(stereo not drawn) [Compound 5b, 2-methoxy-4-(2-(5-pentyl-1-(o-tolyl)-4,5-dihydro-1H-pyrazol-3-yl)ethyl)phenol]", "values": [{"measurement": "%HDAC Inhibition", "setting": "[1]", "result": 56, "unit": "%"}]}
